Source: US20190262431A1, “CBL-FAMILY INHIBITOR COMPRISING A CBL-FAMILY TKB DOMAIN BINDING PEPTIDE FOR THE PREVENTION OR TREATMENT OF DISEASES” (IMBA - INSTITUT FÜR MOLEKULARE BIOTECHNOLOGIE GMBH, priority 2016, published 2019)
Non-standard residues stand in square brackets, D forms with d. Residues, ends and D or L forms follow the SMILES beside them. No end group written: not given here. *: point of attachment. pY = N[C@@H](Cc1ccc(OP(=O)(O)O)cc1)C(=O)O; Cbz = O=C(OCc1ccccc1)*

What was measured:
BM-DC [1] = experiment: Killing assay (fungicidal activity against Candida albicans); assay type: cell-based, mouse; settings: for BM-DC mediated Candida albicans killing in the presence of inhibitor: inhibitor added 30 min prior to stimulation
Description: To assess the fungicidal activity, the indicated immune cells were plated in replicates at a density of 1×10^5 cells/well in 96-well plates. Cells were incubated with Candida albicans at a multiplicity of infection of 1:500 for 24 h. After incubation, phagocytes were fixed by the addition of paraformaldehyde at a final concentration of 4%. Subsequently, Candida albicans were stained with Crystal Violet (Sigma) and killing was assessed by a comparison of colony numbers in wells with or without phagocytes.
(§1) BM-M and BM-DC were stimulated with C. albicans (strain SC5314), Zymosan (Invivogen), Curdlan (Invivogen), TDM (Invivogen), CpG (Invivogen), LPS (Invivogen), or C. albicans hyphae. For inhibition experiments cells were treated with the Syk inhibitor R406 (Selleckchem), anti-Dectin-1 antibody (Invivogen), MG132 (Calbiochem), or Dynasore (Sigma-Aldrich), 30 min prior to stimulation (MOI: Immune cell: C. albicans=1:2). Fungal isolates of Candida krusei, Candida glabrata, and Candida dubliniensis were kindly provided by the Allgemeines Krankenhaus Vienna (AKH). Fungal isoates were tested by PCR to verify the respective species.

B16-SIY melanoma cells = experiment: B16-SIY in vivo tumor model; set-up: species or system mouse; settings: C57Bl/6 mice; 100 μg i.p. every other day
Description: B16-SIY tumor cells as described in (Spranger, 2014) were cultured in DMEM cell culture media (Gibco) supplemented with 10% fetal bovine serum (Sigma), L-Glutamine (Thermo Fisher), Penicillin and Streptomycin (Thermo Fisher). 10^6 tumor cells were transplanted intradermally into C57Bl/6 mice. Mice were injected intraperitoneally with 100 μg of the indicated peptides or vehicle control every other day starting 24 h after tumor cell inoculation. Bodyweight and tumor volume were measured at the indicated time points, subsequently.

phosphorylated Syk = experiment: Western blotting of Syk in Candida albicans stimulated BM-DC with MG132; assay type: cell-based, mouse; settings: MG132 10 μM
Description: as §1
Western blotting was performed according to standard protocols. Blots were blocked for 1 hour with 5% bovine serum albumin in 1×TBS/0.1% Tween-20, or 4% BSA in 1×TBS/0.1% Tween-20 for phosphorylated epitopes, followed by overnight incubation at 4° C. with primary antibodies. Subsequently, blots were washed three times in 1×TBS/0.1% Tween-20 for 15 min, followed by incubation with HRP-conjugated secondary antibodies (1:2500; GE Healthcare # NA9340V) for 45 min at room temperature, washed three times in 1×TBS/0.1% Tween-20 for 15 min and visualized using enhanced chemiluminescence (ECL Plus, Pierce). […] Precipitates were analyzed by Western blotting using the indicated antibodies. […] Precipitates were analyzed by Western blotting with the indicated antibodies.

BM-DC [2] = experiment: Cytokine secretion by Candida albicans stimulated BM-DC (ELISA); assay type: cell-based, mouse; settings: 18 h
Description: Cytokine secretion by cell culture supernatants or in the peritoneal lavage was assessed with ELISA kits purchased from eBioscience (IL-1β, TNF, IL-6, IL-12, IL-23) or R&D Systems (IL-1Ra) according to the manufacturer's instructions. Production of reactive oxygen species (ROS) was measured with as assay using luminol as the probe in real-time over 90 min as described previously (Bourgeois et al., 2009). Caspase-8 activity was assessed using the CaspGLOW assay (Promega) according to the manufacturer's instructions.
as §1

BM-DC [3] = experiment: ROS production by BM-DC co-cultured with Candida albicans (luminol assay); assay type: cell-based, mouse; settings: Cbl-b+/+ BM-DC; 100 μM peptide; versus no peptide
Description: BM-DC or BM-M were obtained by differentiation from bone marrow precursor cells.

Candida albicans = experiment: Systemic (intravenous) Candida albicans infection of mice; assay type: in vivo, mouse; settings: control peptides versus untreated control cohort
Description: 8-10 week old mice were infected with 10^5 colony forming units (CFU) of C. albicans (strain SC5314), 10^5 colony forming units (CFU) of C. dubliniensis, or 10^5 CFUs of Listeria monocytogenes (strain EGD) intravenously. C. albicans CFUs were assessed from various organs as described (Wirnsberger et al., 2014). For clodronate or PBS liposome treatment experiments, mice were injected intraperitoneally with 100 ul/10 g mouse weight of liposomes both 24 h before and 24 h after intravenous C. albicans infections. Clodronate or PBS control liposomes were obtained from clodronateliposomes.org, and handled according to the manufacturer's instructions.

human CD4+ T cells = experiment: Human T cell assays (CFSE proliferation, IFN-γ ELISA, CD69), CD4+ T cells; assay type: cell-based
Description: (§2) Peripheral blood mononuclear cells (PBMC) were purified from human blood using a Lymphoprep™ PBMC isolation kit (Stemcell Technologies), according to the manufacturer's instructions. Human CD4+ or CD8+ T cells were purified from PBMC using CD4 or CD8 MicroBeads (Miltenyi Biotec), respectively, and MACS technology (Miltenyi Biotec). For proliferation assays, flat-bottom 96-well plates were coated with CD3 (OKT3, 0.1 μg/ml) and CD28 (CD28.2, 0.1 μg/ml) antibodies in PBS at 37 degrees C. for 2 h. To monitor proliferative expansion, assays were carried out with carboxyfluorescein succinimidyl ester (CFSE; eBioscience) labeled T cells. T cells were cultured in X-VIVO 15 chemically defined, serum free hematopoietic cell medium (Lonza), with the indicated concentrations of peptide or vehicle control. After 72 h […], cells were labeled with antibodies against CD4 (RPA-T4, Brilliant Violet 510 labeled, Biolegend) or CD8 (RPA-T8, APC-eFluor 780 labeled, eBioscience), and CD69 (FN50, PE/Cy7 labeled, Biolegend), and analyzed on a Beckman Coulter Gallios flow cytometer. Data were analyzed using Beckman Coulter Kaluza software. IFN-γ secretion into cell culture supernatants of the proliferation assays was determined by enzyme-linked immunosorbent assays (ELISA) according to the manufacturer's (BD Biosciences) instructions.

human CD8+ T cells = experiment: Human T cell assays (CFSE proliferation), CD8+ T cells; assay type: cell-based; settings: plate bound CD3/CD28 antibodies; 3 days; CFSE dilution
Description: as §2

murine CD4+ T cells = experiment: Murine T cell proliferation assay; assay type: cell-based, mouse; settings: for proliferative response of cblb Δ/Δ CD4+ T cells: CD3 or CD3 plus CD28 antibodies, versus untreated cells; for proliferative response of cblb Δ/Δ CD4+ T cells / proliferative response of cblb+/+ CD4+ T cells: 3 days; for proliferative response of cblb+/+ CD4+ T cells: plate bound CD3 or CD3 plus soluble CD28 antibodies, versus no peptide
Description: Murine CD4+ T cells were purified from pooled spleens and lymph nodes using MACS technology (Miltenyi Biotec). […] Purified T cells were labeled with the cell proliferation dye eFluor 670 (eBioscience) and cultured in IMDM cell culture medium (Gibco), supplemented with 10% fetal bovine serum (Sigma), L-Glutamine (Thermo Fisher), Penicillin and Streptomycin (Thermo Fisher), in the presence of 5 ng/ml of recombinant IL-2 (Biolegend) and the indicated concentrations of peptide. After 3 days, cells were stained with the fixable viability dye eFluor 780 (Thermo Fisher), and stained with a CD4 antibody (RM4-5, Brilliant Violet 711, Biolegend). Cells were analyzed with a BD LSR Fortessa II flow cytometer (Becton Dickinson), subsequently, and data were analyzed using the FlowJo v10.0.8 software (Tree Star).

O=C(N/N=C/c1ccc(O)c(O)c1)c1cc2ccccc2cc1O [Dynasore]
BM-DC mediated Candida albicans killing in the presence of inhibitor (BM-DC [1]): abrogated

CC[C@H](C)[C@H](NC(=O)[C@H](CCCCN)NC(=O)[C@@H](NC(=O)[C@H](CCC(N)=O)NC(=O)[C@H](CCCNC(=N)N)NC(=O)[C@@H](N)CC(=O)O)[C@@H](C)CC)C(=O)N[C@@H](Cc1c[nH]c2ccccc12)C(=O)N[C@@H](Cc1ccccc1)C(=O)N[C@@H](CCC(N)=O)C(=O)N[C@@H](CC(N)=O)C(=O)N[C@@H](CCCNC(=N)N)C(=O)N[C@@H](CCCNC(=N)N)C(=O)N[C@@H](CCSC)C(=O)N[C@@H](CCCCN)C(=O)N[C@@H](Cc1c[nH]c2ccccc12)C(=O)N[C@@H](CCCCN)C(=O)N[C@@H](CCCCN)C(=O)N[C@@H](CO)C(=O)N[C@H](C(=O)N1CCC[C@H]1C(=O)N[C@@H](CC(N)=O)C(=O)N[C@@H](Cc1ccccc1)C(=O)NCC(=O)N[C@H](C(=O)N[C@@H](Cc1ccc(OP(=O)(O)O)cc1)C(=O)NCC(=O)N[C@H](C(=O)N[C@@H](CO)C(=O)N1CCC[C@H]1C(=O)N[C@@H](Cc1c[nH]c2ccccc12)C(=O)NCC(=O)N1CCC[C@H]1C(=O)N[C@@H](CCC(=O)O)C(=O)O)[C@@H](C)O)C(C)C)[C@@H](C)O [M2]
bodyweight gain (B16-SIY melanoma cells): did not affect

CC(C)C[C@@H](C=O)NC(=O)[C@H](CC(C)C)NC(=O)[C@H](CC(C)C)NC(=O)OCc1ccccc1 [MG132] (Cbz-Leu-Leu-Leu-aldehyde)
levels of phosphorylated Syk (phosphorylated Syk; Cbl-b Δ/Δ BM-DC stimulated with Candida albicans): did not change | phosphorylated Syk in lysates (phosphorylated Syk; Cbl-b+/+ BM-DC stimulated with Candida albicans): increase

COc1cc(Nc2ncc(F)c(Nc3ccc4c(n3)NC(=O)C(C)(C)O4)n2)cc(OC)c1OC [R406]
BM-DC mediated Candida albicans killing in the presence of inhibitor (BM-DC [1]): almost completely abrogated | IL-1β secretion by Candida albicans stimulated BM-DC (BM-DC [2]; BM-DC of all three genotypes): almost completely abrogated | release of IL-6 by Candida albicans stimulated BM-DC (BM-DC [2]; all three genotypes): almost completely abrogated | release of TNF by Candida albicans stimulated BM-DC (BM-DC [2]; all three genotypes): almost completely abrogated

DRQIKIWFQNRRMKWKK [Antennapedia peptide, cell penetrating peptide derived from the Drosophila Antennapedia homeodomain, used alone as control]
ROS production by BM-DC in response to Candida albicans stimulation (BM-DC [3]): did not affect | fungicidal activity (killing capacity) of BM-DC upon Candida albicans infection (BM-DC [1]; 24 h co-culture, 100 μM peptide): did not affect | morbidity or mortality (Candida albicans): did not affect

DRQIKIWFQNRRMKWKKEAVPLYAWYPNPSTFES (DRQIKIWFQNRRMKWKKEAVPLYAW[pY]PNPSTFES; listed as Homo sapiens) [H2]
effects on proliferation, IFN-γ and CD69 of human T cells (human CD4+ T cells; scrambled control, compared with H1): Slight effects

DRQIKIWFQNRRMKWKKSTVSFNPYEPELAPWA (DRQIKIWFQNRRMKWKKSTVSFNP[pY]EPELAPWA; listed as Homo sapiens) [H1]
activation marker CD69 on T cells (human CD4+ T cells; percentage of CD69+ of total CD4+ cells, versus untreated cells): dose dependent upregulation | proliferative response of human CD4+ T cells (human CD4+ T cells; plate bound CD3/CD28 antibodies, 3 days, CFSE dilution): dose dependent significant increase | production of IFN-γ by CD4+ T cells (human CD4+ T cells; supernatants of proliferation assay, ELISA): increased significantly | proliferative response of human CD8+ T cells (human CD8+ T cells): dose dependent significant increase

KIKKTKKKGRKKIKKTKKKGRKSTPNFGVYGTSPWGPE (KIKKTKKKGRKKIKKTKKKGRKSTPNFGV[pY]GTSPWGPE; listed as Mus musculus) [M4]
proliferative response of cblb Δ/Δ CD4+ T cells (murine CD4+ T cells): only mildly increased | proliferative response of cblb+/+ CD4+ T cells (murine CD4+ T cells): only mildly increased

KIKKTKKKGRKKIKKTKKKGRKSTVSFNPYEPTGGPWG (KIKKTKKKGRKKIKKTKKKGRKSTVSFNP[pY]EPTGGPWG; listed as Mus musculus) [M3]
proliferative response of cblb Δ/Δ CD4+ T cells (murine CD4+ T cells): marked increase | effect on proliferation under suboptimal stimulatory conditions (murine CD4+ T cells; low concentrations of CD3, with or without CD28 co-stimulation): more pronounced effects | proliferative response of cblb+/+ CD4+ T cells (murine CD4+ T cells): dose dependent increase
